Experimental data from ChEMBL document CHEMBL2177102, “Modulation of DNA repair by pharmacological inhibitors of the PIKK protein kinase family” (Bioorg Med Chem Lett, 2012).
Where “and” joins values, the source holds several entries; their conditions need not be identical. Identical values can stand only once.

Columns and labels:
[1] = molecular target: T1, DNA-dependent protein kinase catalytic subunit (Homo sapiens, UniProt P78527); test: Inhibition of DNA-PK assessed as inhibition of p53 peptide phosphorylation
T1 sequence (P78527 whole entry): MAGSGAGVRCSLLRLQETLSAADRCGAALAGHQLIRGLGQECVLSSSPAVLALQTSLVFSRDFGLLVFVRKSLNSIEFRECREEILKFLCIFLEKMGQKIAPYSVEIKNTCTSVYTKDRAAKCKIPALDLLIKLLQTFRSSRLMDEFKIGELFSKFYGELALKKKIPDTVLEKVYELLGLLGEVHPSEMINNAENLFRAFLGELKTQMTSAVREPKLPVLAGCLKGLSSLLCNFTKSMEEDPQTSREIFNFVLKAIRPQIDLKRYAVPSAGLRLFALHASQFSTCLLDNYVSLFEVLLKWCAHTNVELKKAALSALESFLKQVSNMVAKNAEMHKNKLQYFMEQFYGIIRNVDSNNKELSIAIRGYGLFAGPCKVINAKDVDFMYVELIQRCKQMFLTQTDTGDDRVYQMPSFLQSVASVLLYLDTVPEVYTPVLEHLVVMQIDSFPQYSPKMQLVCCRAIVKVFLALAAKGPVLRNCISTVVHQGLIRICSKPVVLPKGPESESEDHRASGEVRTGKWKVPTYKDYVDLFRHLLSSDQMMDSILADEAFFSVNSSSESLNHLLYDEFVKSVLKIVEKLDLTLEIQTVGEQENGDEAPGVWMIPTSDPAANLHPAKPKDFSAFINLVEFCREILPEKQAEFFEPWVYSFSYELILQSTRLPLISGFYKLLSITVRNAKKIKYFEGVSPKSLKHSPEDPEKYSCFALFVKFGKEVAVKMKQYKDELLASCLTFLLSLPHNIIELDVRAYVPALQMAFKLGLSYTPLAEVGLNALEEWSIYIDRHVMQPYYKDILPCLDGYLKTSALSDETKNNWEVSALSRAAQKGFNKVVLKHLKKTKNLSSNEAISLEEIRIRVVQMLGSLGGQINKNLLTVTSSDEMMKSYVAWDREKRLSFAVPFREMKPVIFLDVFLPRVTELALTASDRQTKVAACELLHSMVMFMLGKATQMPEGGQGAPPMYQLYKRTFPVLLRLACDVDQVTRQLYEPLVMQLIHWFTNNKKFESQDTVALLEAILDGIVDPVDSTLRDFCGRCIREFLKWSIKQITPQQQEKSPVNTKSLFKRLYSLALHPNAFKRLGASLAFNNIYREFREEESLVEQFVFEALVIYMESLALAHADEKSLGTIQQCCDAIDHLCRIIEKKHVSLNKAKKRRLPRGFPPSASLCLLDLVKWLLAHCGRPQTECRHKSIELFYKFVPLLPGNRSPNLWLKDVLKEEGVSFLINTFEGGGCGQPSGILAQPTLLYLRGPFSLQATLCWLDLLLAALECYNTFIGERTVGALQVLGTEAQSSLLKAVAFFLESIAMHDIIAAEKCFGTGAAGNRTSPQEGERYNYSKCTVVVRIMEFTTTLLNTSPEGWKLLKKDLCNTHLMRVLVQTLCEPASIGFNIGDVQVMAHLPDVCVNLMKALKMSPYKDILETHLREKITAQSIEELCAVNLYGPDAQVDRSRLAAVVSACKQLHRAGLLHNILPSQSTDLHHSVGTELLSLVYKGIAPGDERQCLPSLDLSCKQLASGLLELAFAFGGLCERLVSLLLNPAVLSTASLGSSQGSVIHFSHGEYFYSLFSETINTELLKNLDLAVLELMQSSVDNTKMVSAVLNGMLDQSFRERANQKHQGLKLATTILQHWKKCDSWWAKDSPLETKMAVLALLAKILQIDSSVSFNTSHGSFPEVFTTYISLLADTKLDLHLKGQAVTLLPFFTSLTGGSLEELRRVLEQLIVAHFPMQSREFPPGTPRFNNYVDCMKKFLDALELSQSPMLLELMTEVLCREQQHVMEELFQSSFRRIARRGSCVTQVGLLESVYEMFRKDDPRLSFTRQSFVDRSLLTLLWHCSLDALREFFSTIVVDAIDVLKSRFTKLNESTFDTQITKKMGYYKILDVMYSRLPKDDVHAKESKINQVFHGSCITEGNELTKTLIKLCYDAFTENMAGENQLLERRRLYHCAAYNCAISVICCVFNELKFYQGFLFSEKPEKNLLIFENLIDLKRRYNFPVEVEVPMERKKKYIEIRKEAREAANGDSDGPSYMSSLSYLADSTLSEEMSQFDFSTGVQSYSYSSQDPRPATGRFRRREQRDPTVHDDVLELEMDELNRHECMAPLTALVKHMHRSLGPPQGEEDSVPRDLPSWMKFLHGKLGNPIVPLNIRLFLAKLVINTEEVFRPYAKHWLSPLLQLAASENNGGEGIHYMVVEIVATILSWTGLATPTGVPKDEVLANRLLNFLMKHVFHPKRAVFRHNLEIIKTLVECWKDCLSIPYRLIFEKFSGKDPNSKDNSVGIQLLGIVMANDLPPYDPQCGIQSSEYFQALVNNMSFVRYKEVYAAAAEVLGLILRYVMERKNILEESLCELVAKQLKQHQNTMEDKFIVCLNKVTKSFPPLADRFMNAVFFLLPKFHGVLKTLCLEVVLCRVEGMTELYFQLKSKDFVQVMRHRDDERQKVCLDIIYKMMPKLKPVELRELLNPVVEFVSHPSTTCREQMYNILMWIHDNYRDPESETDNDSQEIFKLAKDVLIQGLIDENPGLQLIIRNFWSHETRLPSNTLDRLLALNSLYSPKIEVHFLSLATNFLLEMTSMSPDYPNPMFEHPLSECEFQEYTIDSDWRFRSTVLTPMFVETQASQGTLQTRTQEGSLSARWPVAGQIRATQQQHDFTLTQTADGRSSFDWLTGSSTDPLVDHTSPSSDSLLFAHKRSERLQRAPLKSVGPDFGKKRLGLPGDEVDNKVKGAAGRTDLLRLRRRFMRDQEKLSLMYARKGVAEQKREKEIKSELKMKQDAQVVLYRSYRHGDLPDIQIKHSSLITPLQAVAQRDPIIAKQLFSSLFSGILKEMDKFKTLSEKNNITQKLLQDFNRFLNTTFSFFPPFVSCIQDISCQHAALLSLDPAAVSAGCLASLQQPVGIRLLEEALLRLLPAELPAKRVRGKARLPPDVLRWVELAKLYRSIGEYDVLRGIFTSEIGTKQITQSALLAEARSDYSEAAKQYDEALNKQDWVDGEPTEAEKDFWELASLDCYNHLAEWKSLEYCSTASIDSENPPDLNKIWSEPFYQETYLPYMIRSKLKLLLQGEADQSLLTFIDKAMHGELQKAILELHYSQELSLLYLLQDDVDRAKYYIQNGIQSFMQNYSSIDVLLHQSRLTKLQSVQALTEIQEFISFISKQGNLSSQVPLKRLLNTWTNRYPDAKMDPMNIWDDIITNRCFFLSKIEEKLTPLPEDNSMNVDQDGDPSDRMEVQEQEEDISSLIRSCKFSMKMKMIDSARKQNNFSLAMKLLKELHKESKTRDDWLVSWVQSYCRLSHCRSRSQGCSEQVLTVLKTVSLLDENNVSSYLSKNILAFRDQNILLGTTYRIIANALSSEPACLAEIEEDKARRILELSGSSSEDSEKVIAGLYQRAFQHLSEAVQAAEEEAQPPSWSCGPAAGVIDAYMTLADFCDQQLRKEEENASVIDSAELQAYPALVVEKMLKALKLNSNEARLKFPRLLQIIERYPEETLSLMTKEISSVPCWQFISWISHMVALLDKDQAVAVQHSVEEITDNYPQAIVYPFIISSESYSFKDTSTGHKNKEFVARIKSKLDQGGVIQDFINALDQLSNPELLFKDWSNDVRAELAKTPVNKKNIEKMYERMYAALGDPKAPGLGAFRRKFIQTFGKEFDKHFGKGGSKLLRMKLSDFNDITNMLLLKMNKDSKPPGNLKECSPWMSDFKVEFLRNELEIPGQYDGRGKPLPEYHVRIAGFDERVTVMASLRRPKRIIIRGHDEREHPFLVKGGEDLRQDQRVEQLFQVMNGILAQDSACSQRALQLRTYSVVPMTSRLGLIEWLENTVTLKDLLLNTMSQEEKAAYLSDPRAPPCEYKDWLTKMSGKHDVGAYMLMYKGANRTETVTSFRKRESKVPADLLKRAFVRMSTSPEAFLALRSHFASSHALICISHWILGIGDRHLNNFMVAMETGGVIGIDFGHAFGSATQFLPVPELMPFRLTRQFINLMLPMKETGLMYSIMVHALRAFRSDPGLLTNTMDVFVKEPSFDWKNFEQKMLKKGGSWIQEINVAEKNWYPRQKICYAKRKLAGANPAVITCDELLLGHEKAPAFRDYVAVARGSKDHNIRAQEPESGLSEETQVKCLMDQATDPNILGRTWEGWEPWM

[2] = molecular target: T1, DNA-dependent protein kinase catalytic subunit; test: Inhibition of DNA-PK in human U1810 cells after 30 mins; assay type: cell-based
[3] = molecular target: Serine-protein kinase ATM (Homo sapiens, UniProt Q13315); test: Irreversible inhibition of ATM
[4] = molecular target: Serine/threonine-protein kinase ATR (Homo sapiens, UniProt Q13535); test: Inhibition of flag-tagged ATR expressed in HEK293T cells using PHAS-1 as substrate after 20 mins by autoradiography; set-up: species or system HEK-293T
[5] = molecular target: T1, DNA-dependent protein kinase catalytic subunit; test: Inhibition of DNA-PK
[6] = molecular target: DNA-dependent protein kinase catalytic subunit (Mus musculus, UniProt P97313); test: Inhibition of DNA-PK in C57BL6 mouse endothelial cells; assay type: cell-based, Endothelial cell
[7] = Inhibition of PI3K
[8] = molecular target: Heat shock protein HSP 90-beta (Homo sapiens, UniProt P08238); test: Inhibition of Hsp90
Chain of Heat shock protein HSP 90-beta (P08238 whole entry): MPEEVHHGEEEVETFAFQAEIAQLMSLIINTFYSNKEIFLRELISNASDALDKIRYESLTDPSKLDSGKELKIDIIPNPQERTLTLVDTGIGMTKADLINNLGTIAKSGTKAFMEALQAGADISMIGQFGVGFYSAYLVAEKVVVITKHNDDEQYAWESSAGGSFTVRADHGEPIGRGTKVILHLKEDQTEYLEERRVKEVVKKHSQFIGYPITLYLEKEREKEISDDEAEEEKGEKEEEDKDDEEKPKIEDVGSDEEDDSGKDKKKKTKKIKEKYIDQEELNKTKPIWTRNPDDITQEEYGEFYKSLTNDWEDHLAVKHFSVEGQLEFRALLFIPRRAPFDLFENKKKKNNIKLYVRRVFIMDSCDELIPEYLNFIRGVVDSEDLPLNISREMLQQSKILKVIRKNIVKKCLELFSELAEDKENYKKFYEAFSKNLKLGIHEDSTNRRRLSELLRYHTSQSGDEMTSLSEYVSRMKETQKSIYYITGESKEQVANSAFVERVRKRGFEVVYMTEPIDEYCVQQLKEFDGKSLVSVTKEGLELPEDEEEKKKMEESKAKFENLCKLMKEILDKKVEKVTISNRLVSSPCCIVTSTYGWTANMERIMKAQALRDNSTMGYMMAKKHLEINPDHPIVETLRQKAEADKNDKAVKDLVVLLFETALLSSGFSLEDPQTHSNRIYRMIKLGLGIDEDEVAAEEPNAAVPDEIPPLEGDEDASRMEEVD

[9] = molecular target: T1, DNA-dependent protein kinase catalytic subunit; test: Competitive inhibition of DNA-PK

In the case of `COc1cc(C=O)c([N+](=O)[O-])cc1OC`, the IC50 [1] is reported as 15 µM.
With `CN1CCN(CCCN2c3ccccc3Sc3ccc(C(F)(F)F)cc32)CC1` [TRIFLUOPERAZINE] the IC50 [2] was 100 µM.
In the case of `C=C1C(=O)OCC1(C(=O)OCC)C(=O)OCC`, the IC50 [3] is reported as 0.25 µM.
With `COc1cc2c(c(OC)c1OC)-c1c(cc3c(c1OC)OCO3)CC(C)C(C)C2` (stereo not drawn) [SCHISANDRIN B] the IC50 [4] was 7.3 µM.
With `Cc1ccc2c(sc3ccccc32)c1-c1cccc2c(=O)cc(N3CCOCC3)oc12` the IC50 [5] was 1.2 µM and 2.5 µM.
Compound `CS(=O)(=O)c1ccc(-c2cnc(N)c(C(=O)Nc3ccccc3)n2)cc1` has an IC50 [5] of 0.026 µM.
`COc1cc(Br)c(C=O)cc1OC` showed an IC50 [1] of 30 µM.
With `O=c1cc(-c2ccccc2)oc2c(-c3ccccc3)c(N3CCOCC3)cc(O)c12` the IC50 [6] was 0.034 µM.
`CC(=O)c1ccc(N2CCOCC2)cc1O` showed an IC50 [6] of 0.12 µM.
`CO[C@@H]1/C=C/C=C(\C)C(=O)NC2=CC(=O)C(NCCCCCCOc3ccc4c(=O)cc(N5CCOCC5)oc4c3)=C(C[C@@H](C)C[C@@H](OC)[C@@H](O)[C@H](C)/C=C(\C)[C@H]1OC(N)=O)C2=O` (stereo in doubt) gave an IC50 [5] of 6.1 µM, an IC50 [7] of over 500 µM and an EC50 [8] of 4 µM.
With `CC(CN(C)C)S(=O)(=O)c1ccc(-c2cnc(N)c(C(=O)Nc3ccccc3)n2)cc1` (stereo not drawn) the Ki [5] was 0.006 µM.
For `Nc1ncc(-c2ccccc2)nc1C(=O)Nc1ccccc1`, the IC50 [9] was 0.62 µM.
For `C=C1C(=O)OC[C@@H]1C(=O)N1Cc2cc3ccccc3nc2C1`, the IC50 [3] was 0.6 µM.
Compound `COc1cc(C=O)ccc1O` [VANILLIN] has an IC50 [1] of 1500 µM.
Compound `N#Cc1cc(-c2ccncc2)c(/C=N/N)nc1O` has an IC50 [9] of 8 µM.
`CCc1[nH]c(/C=C2\C(=O)Nc3ccc(S(=O)(=O)Nc4ccccc4)cc32)c(CC)c1CCC(=O)O` gave an IC50 [9] of 0.13 µM.
